Data: patent US20220125803A1, “METHODS FOR THE TREATMENT OF PERIMENOPAUSE AND MENOPAUSE” (Praxis Precision Medicines, Inc., priority 2019, published 2022)

How the values were obtained:
[1] = system: women that are perimenopausal with depression; experiment: Open label trial, Hamilton Depression Rating Scale (HAM-D); type: in vivo, human; conditions: one patient
Protocol: (§1) The study is a two-week open label trial in women that are perimenopausal with depression during which patients were treated with an oral formulation of Compound 1 in adjunct to standard antidepressant treatment.
[…] Participants were administered daily doses of Compound 1 (up to 120 mg qPM, including 15 mg once a day, 20 mg once a day, 25 mg once a day, 30 mg once a day, 35 mg once a day, 40 mg once a day, 45 mg once a day, 50 mg once a day, 55 mg once a day, 60 mg once a day, 65 mg once a day, 70 mg once a day, 75 mg once a day, 80 mg once a day, 85 mg once a day, 90 mg once a day, 95 mg once a day, 100 mg once a day, 105 mg once a day, 110 mg once a day, 115 mg once a day and 120 mg once a day) for 14 days.
The Primary efficacy outcome was measured by the Hamilton Depression Rating Scale (HAM-D). The HAM-D was administered at baseline (Day 1, predose), Day 4, Day 8, Day 15, Day 21 and Day 28.
HAM-D Response was defined as a reduction from baseline of >50% in total HAM-D score. HAM-D remission was defined as a total HAM-D score of <7.

[2] = Food Effect Cohort (Cohort 4), plasma pharmacokinetics fasted vs fed; conditions: Cohort 4, single 30 mg
Protocol: (§4) The Day 1 dose was administered after a minimum of 10 hour fasting. No additional fluid intake was allowed until 1 hour after drug administration. A standard meal was given at least 4 hours post-dose. The Day 5 dose was administered following a high-fat, high calorie meal. Participants remained at the clinical site for a total of 8 days to complete PK sampling after the second dose.
(§5) Pharmacokinetic variables (including but not limited to Cmax, Tmax and AUC(0-last)) were calculated using non-compartmental analysis.

[3] = Multiple escalating dose study, plasma pharmacokinetics, Cohorts 1-3; type: in vivo, human
Protocol: Healthy subjects aged 18 to 55 years were treated with an oral suspension of Compound 1 to study the safety, tolerability, pharmacokinetics and pharmacodynamics of Compound 1 in healthy subjects.
The study was a randomized, double-blind, placebo-controlled multiple escalating dose study comprised of 3 cohorts that each received an oral suspension. Each cohort consisted of two groups: one group treated with Compound 1 and another treated with placebo. In each cohort, the ratio of Compound 1-treated subjects to placebo-treated subjects was 3:1.
The Compound 1-treated subjects of Cohort 1 were treated with 15.0 mg of Compound 1 once per day (QD). The Compound 1-treated subjects of Cohort 2 were treated with 30.0 mg of Compound 1 QD. The Compound 1-treated subjects of Cohort 3 were treated with 60.0 mg of Compound 1 QD.
Patients in each cohort were treated with Compound 1 for 14 consecutive days, unless dosing was halted by the Safety Review Committee (SRC). The dosing of subjects in each of the cohorts was staggered with the decision to dose escalate based on SRC review of a minimum of 14 days of observation of safety and tolerability data and review of the available plasma PK data from the preceding cohort(s). Thus, dose escalation was predicated on tolerability of the prior cohorts.
Compound 1 was administered under fasted conditions (no food or drink, except water, for at least 10 hours prior to dosing). Immediately after administration of Compound 1, the subject was be administered 240 mL water. No additional fluid intake was allowed until 1 hour after Compound 1 administration.
Cohort 1 subjects received a single 15.0 mg dose of a Compound 1 suspension on the morning of Days 1-14. Cohort 2 subjects received a single 30.0 mg dose of a Compound 1 suspension on the morning of Days 1-14. Cohort 3 subjects received a single 60.0 mg dose of a Compound 1 suspension on the morning of Days 1-14. For all cohorts, the last treatment was administered on the morning of Day 14.
Plasma samples were analyzed to determine Compound 1 concentrations using a validated assay method. Pharmacokinetic variables (including but not limited to Cmax, Tmax and AUC(0-last)) were calculated using non-compartmental analysis. PK parameters for Compound 1 were derived from the plasma concentration data using non-compartmental analysis with Phoenix™ WinNonlin® v 8.0 (Pharsight Corporation, USA).
Blood (Cohorts 1-3): For each cohort, blood samples were collected on Days 1, 2, 3, 4, 5, 6 and 14 at the following time points: Day 1 at pre-dose (0 hour), 0.25, 0.5, 0.75, 1, 1.5, 2, 2.5, 3, 4, 6, 8, 12, 16 h post-dose; Day 2 at pre-dose (24 h), Day 3 at pre-dose (48 h), Day 4 at pre-dose (72 h), Day 5 at pre-dose (96 h), Day 6 at pre-dose (120 h); Day 14 at pre-dose 0.25, 0.5, 0.75, 1, 1.5, 2, 2.5, 3, 4, 6, 8, 12, 16, 24, 36, 48, and 72 hours. Trough level blood samples were collected on Days 2, 3, 4, 5, 6 and 14, prior to the morning dose administrations.
Descriptive statistics were calculated for plasma and urine PK parameter and concentration data, and summarized by study day and time point. Arithmetic means, coefficient of variation (CV), standard deviation, median, minimum, and maximum values, and number of observations were calculated for all PK parameters and trough concentration data. Except for Tmax, the geometric mean, geometric standard deviation, and geometric CV were provided for all PK parameter and concentration data. […]

[4] = human, in vivo, 30 mg
Protocol: as §4, §5

[5] = system: women that are perimenopausal with depression; experiment: Open label trial, vasomotor symptom diary (hot flushes); type: in vivo, human; conditions: one patient, 60 mg once a day, by Day 4 (baseline 9 per day)
Protocol: as §1
(§2) Treatment Period: The treatment period was 14 days in duration. Participants were administered daily doses of Compound 1 (up to 120 mg qPM, including 15 mg once a day, 20 mg once a day, 25 mg once a day, 30 mg once a day, 35 mg once a day, 40 mg once a day, 45 mg once a day, 50 mg once a day, 55 mg once a day, 60 mg once a day, 65 mg once a day, 70 mg once a day, 75 mg once a day, 80 mg once a day, 85 mg once a day, 90 mg once a day, 95 mg once a day, 100 mg once a day, 105 mg once a day, 110 mg once a day, 115 mg once a day and 120 mg once a day) for 14 days.
(§3) Secondary outcome measure was by the Clinical Global Impression (CGI), DSM-V MDD Anxious Distress Specifier, the Hamilton Anxiety Rating Scale (HAM-A), the Montgomery-Asberg Depression Rating Scale (MADRS), the Perimenopausal Depression Questionnaire (Meno-D), the Pittsburgh Sleep Quality Index (PSQI), the revised Sabbastberg Sexual Function Scale, the Symptoms of Depression Questionnaire (SDQ), and a vasomotor symptom diary.

[6] = system: women that are perimenopausal with depression; experiment: Open label trial, Perimenopausal Depression Questionnaire (Meno-D); type: in vivo, human; conditions: one patient, 60 mg once a day
Excerpt: The Meno-D is a perimenopausal depression rating scale consisting of 12 items, each items is scored on a 5-point scale (ranging from 0 to 4) (Kulkami J, et al., Development and validation of a new rating scale for perimenopausal depression-the Meno-D. Transl Psychiatry. 2018 Jun. 28; 8(1):123). The total score of the 12 items ranges from […] with higher scores indicating more severe perimenopausal depression. The MENO-D has five factors (or domains): Self (four items), Sexual (two items), Somatic (two items), Cognitive (two items) and Sleep (two items). MENO-D assesses the patient's self-esteem, sense of isolation, paranoid thinking, anxiety, interest in socialising, changes in libido and sexual activity, any decrease in energy, physical pain, changes in weight, subjective changes in memory and concentration, and increases in irritability and/or sleep disturbances.
as §1, §2, §3

[7] = system: women that are perimenopausal with depression; experiment: Open label trial, safety/tolerability; type: in vivo, human; conditions: one patient, 60 mg dose once a day for 14 days
Protocol: During the study, physical examination, vital signs, ECG, and clinical laboratory tests were conducted. The Modified Observers Assessment of Anesthesia and Sedation, (MOASS) and the Columbia Suicide were performed.

With `CNCCC(Oc1ccc(C(F)(F)F)cc1)c1ccccc1` (stereo not drawn) [fluoxetine, reference compound] the “clinical response of depression symptoms (HAM-D score and clinical evaluation)” value ([1]; 15 mg daily taken for 8 months, before Compound 1) was “had not demonstrated a sufficient clinical response”.
For `COC[C@@]1(O)CC[C@@]2(C)[C@@H](CC[C@@H]3[C@@H]2CC[C@]2(C)[C@@H](C(=O)Cn4ccnc4)CC[C@@H]32)C1` [Compound 1, 3α-Hydroxy-3β-methoxymethyl-21-(1′-imidazolyl)-5α-pregnan-20-one], the “t1/2, fasted versus fed” value [2] was “similar”, the “accumulation factor of the dosing interval (ratio of AUCDay14/AUCDay1)” value ([3]; Cohort 1, 15.0 mg QD) was “approximately 1.25” and the AUCinf ([3]; Cohort 1, 15.0 mg QD, Day 14 steady state, Geo Mean) was 600.228 ng·h/mL. For the same compound, the “accumulation factor of the dosing interval (ratio of AUCDay14/AUCDay1)” value ([3]; Cohort 2, 30.0 mg QD) was “approximately 1.25”, the AUC0-tau ([3]; human, in vivo, 15 mg) was 361.762 ng·h/mL and the Cmax ([3]; human, in vivo, 15 mg) was 56.016 ng/mL. The “Tmax, fasting compared to fed conditions” value [4] was “tendency for a shorter Tmax”, the “decrease in frequency of hot flushes” value [5] was 66% and the “improvement in MENO-D from baseline value” ([6]; Day 8 (baseline 28)) was 54%. The MENO-D classification ([6]; Day 8 and Day 15) was “no longer met classification for perimenopausal depression requiring clinical attention”, the “improvement in MENO-D factor Cognitive” value ([6]; Day 15) was 100% and the “improvement in MENO-D factor Self” value ([6]; Day 15) was 63%. For the same compound, the “improvement in MENO-D factor Sexual” value ([6]; Day 15) was 43%, the “improvement in MENO-D factor Sleep” value ([6]; Day 15) was 40% and the “improvement in MENO-D factor Somatic” value ([6]; Day 15) was 50%. The “improvement in MENO-D from baseline value” ([6]; Day 15 (baseline 28)) was 57%, the HAM-D score ([1]; 60 mg once a day for 14 days, Day 15 (baseline 28)) was 8 and the “improvement in HAM-D score” value ([1]; 60 mg once a day for 14 days, adjunct to fluoxetine, Day 8) was 48%. For the same compound, the “improvement in HAM-D score from baseline value” ([1]; 60 mg once a day for 14 days, adjunct to fluoxetine, Day 15) was 71%, the “HAM-D Remission criterion (total HAM-D score of <7)” value ([1]; 60 mg once a day, Day 15) was “nearly met the HAM-D Remission criterion” and the “HAM-D Response criterion (reduction from baseline of >50%)” value ([1]; 60 mg once a day, Day 15) was “met the HAM-D Response criterion”. For the same compound, the adverse event reported [7] was “mild epigastric pain after dosing” and the tolerability [7] was “well-tolerated”.
